Experimental data taken from patent US6881584B1, “Infrared thermography” (SmithKline Beecham Corporation, priority 1998, dated 2005).

What was measured:
intrascapular region = assay: Intrascapular thermogenesis in inbred mouse strains on high and low fat diets; type: in vivo, mice; details: 1 mg/kg i.p., 60 min
Description: (§1) Male AKR/J, C57BL/6J, and SWR/J mice were purchased from 4-8 weeks of age from Jackson Laboratories (Bar Harbor, Me.). Mice were fed high and low fats diets containing high sucrose as defined by Surwit et al., (Metabolism 44(5):645-651 (1995)). After 14 weeks on these diets, the intrascapular fur was shaved, the animals were dosed (intraperitineal) with 1 mg/kg of BRL37344, and the animals were anesthetized with isofluorane. Nude mice (BALB/C) were 6-8 weeks old and were dosed with inhalant two times before thermal profiling. The Lewis rat strain (200-250 g) were used for both the MED and inflammation experiments. Infrared thermographic images and temperature calculations were recorded using an Agema Thermovision 900 Infrared System.
One environmental component that alters the metabolic rate in individuals with a genetic predisposition towards diabetes, dyslipidemia, or obesity is diet. It was unknown if thermography could be used to measure the effects of diet on drug-induced changes in heat production in animals with different genotypes. Thus, three different inbred strains of mice, AKR/J, C57BL/6J, and SWR/J, were maintained on high and low fat diets for 14 weeks before treating with the β3-adrenoceptor agonist, BRL37344. The heat produced in the intrascapular region was measured before and after 60 min treatment using infrared thermography. […] Thus, this technique may be used to select, rank order for the efficacy and potency of compounds with the, desired properties for a given environment or genetic background. Similarly, this technique can be used to identify, rank, and select animals and environmental factors with the desired properties for a given drug candidate.

[1] = system: interscapular brown adipose tissue (IBAT); assay: IBAT thermogenesis in ob/ob mice, shaved or skin replaced with IR transparent adhesive; type: in vivo; details: 0.01-1 mg/kg i.g., 1 hour
Description: FIG. 28. Interscapular brown adipose tissue (IBAT) thermogenesis in ob/ob mice 1 hour after treatment with the […]-adrenoceptor agonist BRL37344 detected by IR thermography. Ten week old male ob/ob mice (Jackson Labs, Bar Harbor, Me.) were housed 5 animals/cage at 72° F. and 50% relative humidity with a 12 h light and dark cycle. They were fed chow diet (NIH R&M/Auto 6F-Ovals 5K67, PMI Feeds® Inc., Richmond, Ind.) and water ad libitum. Mice were dosed at 0.0, 0.01, 0.1, 0.3, or 1 mg/kg BRL37344 in water vehicle (0.25 mL i.g.; n=20 per dose). All animals were anesthetized with isofluorane and shaved to expose the area of interest prior to IR scanning. […] Images were recorded at 1 min intervals for 5 min with a frame averaging rate of 32 frames/sec. Acquired images were analyzed for average temperatures using an in-house image processing software application (Roboimage). Data are expressed as either average temperature/area or delta temperature/area (drug treated-vehicle treated).
The top panels show IR images of the interscapular regions of mice whose skin was removed and Bioclusive adhesive covering placed over the IBAT or mice who have been shaved only following treatment with BRL37344 at the doses indicated for 1 hour. Quantification of IR signal in the IBAT region is shown in the bottom panel. […]

C3H10T1/2 adipocytes [2] = assay: Lipolysis in adipocytes treated with β-AR-agonists; type: cell-based; details: adipocytes, dose response; read-out: EC50 (nM) Lipolysis
Description: (§2) Human subcutaneous adipocytes were purchased from Zen-Bio, Inc. (Research Triangle Park, N.C.). C3H10T1/2 clone 8 fibroblasts were differentiated into adipocytes as previously described (Lenhard et al, Biochem. Pharmacol. 54:801-808 (1997), Paulik and Lenhard, Cell Tissue Res. 290:79-87 (1997)). After 7 days in culture, triglyceride accumulation was determined by adding lipoprotein lipase and GPO-Trinder reagent (assay kit 337-B, Sigma Diagnostics, St. Louis, Mo.) to the cells (50 μl/cm^2) and incubating the lysates at 37° C. for 2 hours. The optical density was measured using a spectrophotometer set at a wavelength of 540 nm. Lipolysis was measured as previously described (Lenhard et al, Biochem. Pharmacol. 54:801-808 (1997)).
(§3) As a control, the effects of β-AR-agonists on lipolysis was also measured. […] In general, this expands to measuring thermogenic activity of both catabolic and anabolic mediated-effects of potential drug candidates.

C3H10T1/2 adipocytes [3] = assay: Infrared thermography of thermogenesis in cultured adipocytes (β-AR-agonists); type: cell-based; details: for stimulation of thermogenesis: C3H10T1/2 adipocytes; for EC50: adipocytes, infrared thermography, dose response, read-out: EC50 (nM) Thermogenesis
Description: as §2
Heat generation was measured using a Stirling cooled Agema Thermovision 900 Infrared System AB (Marietta, Ga.) equipped with a SW Scanner and 40°×25° lens which detects a 2-5.4 micron spectral response. […] The focal distance was 6 cm. Images were captured using a recurs function set at 16 or an averaging function set at 32. The data was analyzed using OS-9 advanced systems and ERIKA 2.00 software according to the manufacturer's specifications (FLIR Infrared Systems AB, Danderyd, Sweden). Thermography of adipocytes was performed by maintaining the ambient temperature of the cultured cells at 37±0.02° C. using a Queue Systems Inc. (Parkersburg, W.Va.) incubator, model QWJ500SABA. Spectral analysis of yeast was performed at 30±0.02° C. using the same incubator system. After treating the cells with experimental agents (e.g., rotenone etc.), the temperature was equilibrated for 10 minutes in the incubator before measuring real time thermogenesis for all microtiter plate applications. Various color scales in the visible wavelength were used to depict the temperature fluctuations of the recorded images. Although temperature scales are constant, the color scale images are variable and can be adjusted with level and span controls.
The β3-AR-agonists are candidate therapeutic agents for the treatment of diabetes and obesity. Although, the mechanism of action for these agents is thought to involve increased metabolic rate (Scarpace, Ann. N.Y. Acad. Sci. 813:111-116 (1997)), it has yet to be shown that β-AR-agonists increase heat output by adipocytes. Therefore, it was determined whether infrared imaging could be used to monitor the effects of β-AR-agonists on thermogenesis in cultured adipocytes.
as §3

yeast = type: cell-based
Description: Heat generation was measured using a Stirling cooled Agema Thermovision 900 Infrared System AB (Marietta, Ga.) equipped with a SW Scanner and 40°×25° lens which detects a 2-5.4 micron spectral response. […] The focal distance was 6 cm. Images were captured using a recurs function set at 16 or an averaging function set at 32. The data was analyzed using OS-9 advanced systems and ERIKA 2.00 software according to the manufacturer's specifications (FLIR Infrared Systems AB, Danderyd, Sweden). […] Spectral analysis of yeast was performed at 30±0.02° C. using the same incubator system. After treating the cells with experimental agents (e.g., rotenone etc.), the temperature was equilibrated for 10 minutes in the incubator before measuring real time thermogenesis for all microtiter plate applications. Various color scales in the visible wavelength were used to depict the temperature fluctuations of the recorded images. Although temperature scales are constant, the color scale images are variable and can be adjusted with level and span controls.

human adipocytes = assay: Infrared thermography of human adipocytes in 96-well plates; type: cell-based; details: dose response, relative to untreated cells
Description: Heat generation was measured using a Stirling cooled Agema Thermovision 900 Infrared System AB (Marietta, Ga.) equipped with a SW Scanner and 40°×25° lens which detects a 2-5.4 micron spectral response. […] The focal distance was 6 cm. Images were captured using a recurs function set at 16 or an averaging function set at 32. The data was analyzed using OS-9 advanced systems and ERIKA 2.00 software according to the manufacturer's specifications (FLIR Infrared Systems AB, Danderyd, Sweden). Thermography of adipocytes was performed by maintaining the ambient temperature of the cultured cells at 37±0.02° C. using a Queue Systems Inc. (Parkersburg, W.Va.) incubator, model QWJ500SABA. […] After treating the cells with experimental agents (e.g., rotenone etc.), the temperature was equilibrated for 10 minutes in the incubator before measuring real time thermogenesis for all microtiter plate applications. Various color scales in the visible wavelength were used to depict the temperature fluctuations of the recorded images. Although temperature scales are constant, the color scale images are variable and can be adjusted with level and span controls.

C3H10T1/2 cells = assay: Infrared thermography of heat production in differentiating C3H10T1/2 cells (PPARγ agonists); type: cell-based; details: Mus musculus, C3H 10T1/2, in the presence of insulin and 9-cis retinoic acid (FIG. 7), read-out: EC50(μM), thermogenesis and lipogenesis assays
Description: as §2
Heat generation was measured using a Stirling cooled Agema Thermovision 900 Infrared System AB (Marietta, Ga.) equipped with a SW Scanner and 40°×25° lens which detects a 2-5.4 micron spectral response. […] The focal distance was 6 cm. Images were captured using a recurs function set at 16 or an averaging function set at 32. The data was analyzed using OS-9 advanced systems and ERIKA 2.00 software according to the manufacturer's specifications (FLIR Infrared Systems AB, Danderyd, Sweden). […] Various color scales in the visible wavelength were used to depict the temperature fluctuations of the recorded images. […]

whole back = assay: Infrared thermography of drug-induced thermogenesis in humans; type: in vivo, human; details: 60 minutes after 0.6-0.7 mg/kg
Description: The effect of ephedrine on thermogenesis in two human subjects was detected by infrared Imaging 60 minutes after treatment with ephedrine at a dose of 0.6-0.7 mg/kg. […] Thus, infrared thermography can be used as a non-invasive surrogate assay to evaluate the efficacy, potency, pharmacokinetics, pharmocodynamics of drugs in clinical studies.

limb inflammation = assay: PGPS arthritis model, limb thermogenesis; type: in vivo, rat
Description: as §1
Arthritis is a disease characterized by inflammation of the joints and can be treated with antiinflammatory agents. Because inflammatory responses are associated with increased thermogenesis at the site of the response, arthritis and the efficacy of arthritis drugs can be monitored by thermography. […] The other limb was not treated. […] Thus, infrared thermography is a useful tool for monitoring inflammatory responses and the efficacy of antiinflammatory agents as well as providing a method for screening, selecting and evaluating the effectiveness of drug candidates for treating arthritic indications.

Compound: C[C@H](Cc1ccc(OCC(=O)O)cc1)NC[C@H](O)c1cccc(Cl)c1 [BRL37344]
- thermogenic response, high vs low fat diet (intrascapular region; AKR/J mice (obesity prone)): greater thermogenic response to BRL37344 when fed the higher fat diet
- thermogenic response, high vs low fat diet (intrascapular region; C57BL/6J mice): little difference in the thermogenic response
- thermogenic response, high vs low fat diet (intrascapular region; SWR/J mice (obesity resistant)): greater thermogenic response when fed the lower fat diet
- IBAT thermogenesis ([1]; shaved only): thermogenesis increased
- IBAT thermogenesis ([1]; skin removed (peelback) and Bioclusive adhesive): demonstrate a dose-response

Compound: C[C@H](Cc1ccc2c(c1)OC(C(=O)[O-])(C(=O)[O-])O2)NC[C@H](O)c1cccc(Cl)c1.[Na+].[Na+] [CL316253]
- EC50 (C3H10T1/2 adipocytes [2]): 7.9 nM
- thermogenesis versus treatment time (C3H10T1/2 adipocytes [3]; 15 min vs 18 hours treatment): greater after 15 min than after 18 hours
- stimulation of thermogenesis (C3H10T1/2 adipocytes [3]): stimulated
- EC50 (C3H10T1/2 adipocytes [3]): 8.9 nM
- dose dependence of thermogenic effect (C3H10T1/2 adipocytes [3]; dose range 0.8-100 nM): dose dependent thermogenic effect

Compound: N#CC(C#N)=NNc1ccc(OC(F)(F)F)cc1 [FCCP, carbonyl cyanide p-(trifluoromethoxy)phenylhydrazone]
- thermogenesis in yeast (yeast): stimulated heat production
- thermogenesis in human adipocytes (human adipocytes): stimulated heat production

Compound: CC[C@H]1/C=C/C=C/C[C@@H](C)[C@H](O)[C@@](C)(O)C(=O)[C@@H](C)[C@H](O)[C@@H](C)C(=O)[C@@H](C)[C@H](O)[C@@H](C)/C=C/C(=O)O[C@@H]2[C@H](C)[C@H](CC1)O[C@]1(CC[C@H](C)[C@H](C[C@@H](C)O)O1)[C@H]2C [Oligomycin]
- EC50 (C3H10T1/2 adipocytes [3]; Mus musculus, C3H 10T1/2): 9.2 nM

Compound: COc1ccc(CCNCC(O)COc2ccc(O)c(O)c2)cc1OC (stereo not shown) [RO363]
- EC50 (C3H10T1/2 adipocytes [2]): 1000 nM
- stimulation of thermogenesis (C3H10T1/2 adipocytes [3]): less effective than CL316243 or isoproterenol
- EC50 (C3H10T1/2 adipocytes [3]): 956 nM

Compound: C[C@@H]1C[C@@H]([C@H](O)CC2CC(=O)NC(=O)C2)C(=O)[C@@H](C)C1 [cycloheximide]
- effect on β3-AR-mediated thermogenesis (C3H10T1/2 adipocytes [3]; 100 μM): had no effect

Compound: O=C1NC(=O)C(Cc2ccc3c(c2)CC[C@H](Cc2ccccc2)O3)S1 (stereo partly shown) [englitazone]
- EC50 (C3H10T1/2 cells): > 10 µM

Compound: CN[C@@H](C)[C@H](O)c1ccccc1 [ephedrine]
- Delta T (whole back; subject A): 0.63 °C
- Delta T (whole back; subject B): 0.46 °C

Compound: C[C@]12C=CC(=O)C=C1CC[C@@H]1[C@@H]2[C@@H](O)C[C@@]2(C)[C@H]1CC[C@]2(O)C(=O)CO [prednisolone]
- thermogenesis of arthritic limb after treatment (limb inflammation; PGPS arthritis model, 6 mg/kg p.o.): reverses the elevation in thermogenesis

Compound: peptidoglycan polysaccharide [PGPS]
- thermogenesis of injected limb vs untreated limb (limb inflammation; limb injected for two weeks): higher level of thermogenesis in the treated limb than in the untreated limb
